Experimental data from PubChem BioAssay (NCI).
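Test compounds were applied to cells in 96-well plates for 48 hours at 5 doses. TGI is the concentration that stops growth completely.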

Tests used:
Assay in all cases: growth of human tumour cells (NCI), 48 h
[1] = tested on: 786-0 renal
[2] = tested on: A549 NSCLC
[3] = tested on: ACHN renal
[4] = tested on: CCRF-CEM leukemia
[5] = tested on: COLO 205 colon
[6] = tested on: DLD-1 colon
[7] = tested on: DMS 114 small cell lung
[8] = tested on: EKVX NSCLC
[9] = tested on: HCC-2998 colon
[10] = tested on: HCT-116 colon
[11] = tested on: HL-60(TB) leukemia
[12] = tested on: HOP-62 NSCLC
[13] = tested on: HOP-92 NSCLC
[14] = tested on: HT29 colon
[15] = tested on: IGROV1 ovarian
[16] = tested on: KM12 colon
[17] = tested on: KM20L2 colon
[18] = tested on: LOX IMVI melanoma
[19] = tested on: LXFL 529 NSCLC
[20] = tested on: M14 melanoma
[21] = tested on: M19-MEL melanoma
[22] = tested on: MALME-3M melanoma
[23] = tested on: MOLT-4 leukemia
[24] = tested on: NCI-H226 lung
[25] = tested on: NCI-H23 lung
[26] = tested on: NCI-H460 lung
[27] = tested on: OVCAR-3 ovarian
[28] = tested on: OVCAR-4 ovarian
[29] = tested on: OVCAR-5 ovarian
[30] = tested on: OVCAR-8 ovarian
[31] = tested on: RPMI-8226 leukemia
[32] = tested on: RXF 393 renal
[33] = tested on: SF-268 CNS
[34] = tested on: SF-295 CNS
[35] = tested on: SK-MEL-2 melanoma
[36] = tested on: SK-MEL-28 melanoma
[37] = tested on: SK-MEL-5 melanoma
[38] = tested on: SN12C renal
[39] = tested on: SNB-19 CNS
[40] = tested on: SNB-75 CNS
[41] = tested on: SNB-78 CNS
[42] = tested on: SW-620 colon
[43] = tested on: TK-10 renal
[44] = tested on: U251 CNS
[45] = tested on: UACC-257 melanoma
[46] = tested on: UACC-62 melanoma
[47] = tested on: UO-31 renal
[48] = tested on: XF 498 CNS
[49] = tested on: A498 renal
[50] = tested on: CAKI-1 renal
[51] = tested on: HCT-15 colon
[52] = tested on: HOP-18 NSCLC
[53] = tested on: NCI-H522 lung
[54] = tested on: BT-549 breast
[55] = tested on: DU-145 prostate
[56] = tested on: HS 578T breast
[57] = tested on: K-562 leukemia
[58] = tested on: MCF7 breast
[59] = tested on: MDA-MB-231 breast
[60] = tested on: MDA-MB-435
[61] = tested on: MDA-N
[62] = tested on: NCI/ADR-RES ovarian
[63] = tested on: PC-3 prostate
[64] = tested on: SF-539 CNS
[65] = tested on: SK-OV-3 ovarian
[66] = tested on: SR leukemia
[67] = tested on: T-47D breast
[68] = tested on: DMS 273 small cell lung

## N#CC(/C(=N/NC(=O)C(=O)NN)C(=O)Nc1nc([N+](=O)[O-])cs1)c1ccc(Cl)cc1 (configuration not stated)
[1]
  TGI: > 100 µM
[2]
  TGI: > 100 µM
[3]
  TGI: > 100 µM
[4]
  TGI: > 100 µM
[5]
  TGI: > 100 µM
[6]
  TGI: > 100 µM
[7]
  TGI: > 100 µM
[8]
  TGI: > 100 µM
[9]
  TGI: > 100 µM
[10]
  TGI: > 100 µM
[11]
  TGI: > 100 µM
[12]
  TGI: > 100 µM
[13]
  TGI: > 100 µM
[14]
  TGI: > 100 µM
[15]
  TGI: > 100 µM
[16]
  TGI: > 100 µM
[17]
  TGI: > 100 µM
[18]
  TGI: > 100 µM
[19]
  TGI: > 100 µM
[20]
  TGI: > 100 µM
[21]
  TGI: > 100 µM
[22]
  TGI: > 100 µM
[23]
  TGI: > 100 µM
[24]
  TGI: > 100 µM
[25]
  TGI: > 100 µM
[26]
  TGI: > 100 µM
[27]
  TGI: > 100 µM
[28]
  TGI: > 100 µM
[29]
  TGI: > 100 µM
[30]
  TGI: > 100 µM
[31]
  TGI: > 100 µM
[32]
  TGI: > 100 µM
[33]
  TGI: > 100 µM
[34]
  TGI: > 100 µM
[35]
  TGI: > 100 µM
[36]
  TGI: > 100 µM
[37]
  TGI: > 100 µM
[38]
  TGI: > 100 µM
[39]
  TGI: > 100 µM
[40]
  TGI: > 100 µM
[41]
  TGI: > 100 µM
[42]
  TGI: > 100 µM
[43]
  TGI: > 100 µM
[44]
  TGI: > 100 µM
[45]
  TGI: > 100 µM
[46]
  TGI: > 100 µM
[47]
  TGI: > 100 µM
[48]
  TGI: > 100 µM

## COc1ccc2nc3cc(Cl)ccc3c(NCCC[N+](C)(C)CCCCCCCCCCCCCCCC[N+](C)(C)CCCNc3c4ccc(Cl)cc4nc4ccc(OC)cc34)c2c1
[1]
  TGI: > 100 µM
[49]
  TGI: > 100 µM
[2]
  TGI: > 100 µM
[3]
  TGI: > 100 µM
[50]
  TGI: > 100 µM
[6]
  TGI: > 100 µM
[8]
  TGI: 9.97 µM
[51]
  TGI: > 100 µM
[52]
  TGI: 14 µM
[17]
  TGI: > 100 µM
[19]
  TGI: 3.25 µM
[24]
  TGI: > 100 µM
[53]
  TGI: 8 µM
[27]
  TGI: > 100 µM
[29]
  TGI: 14.2 µM
[30]
  TGI: > 100 µM
[32]
  TGI: > 100 µM
[34]
  TGI: > 100 µM
[38]
  TGI: > 100 µM
[43]
  TGI: 25.3 µM

## CO/C=C(/C(=O)OC)c1ccccc1[C@@H]1CC1c1cccc(F)c1 (some centres not stated)
[1]
  TGI: > 100 µM
[49]
  TGI: 95.9 µM
[2]
  TGI: 78.5 µM
[3]
  TGI: 62.7 µM
[54]
  TGI: 61.4 µM
[50]
  TGI: 70.4 µM
[4]
  TGI: 87.7 µM
[5]
  TGI: 30.3 µM
[55]
  TGI: > 100 µM
[8]
  TGI: 88.1 µM
[9]
  TGI: 94.8 µM
[10]
  TGI: 77.3 µM
[51]
  TGI: 78.1 µM
[11]
  TGI: 57.9 µM
[12]
  TGI: > 100 µM
[13]
  TGI: > 100 µM
[56]
  TGI: > 100 µM
[14]
  TGI: > 100 µM
[15]
  TGI: 62.8 µM
[57]
  TGI: > 100 µM
[16]
  TGI: 83.9 µM
[20]
  TGI: 81.6 µM
[22]
  TGI: 45.9 µM
[58]
  TGI: > 100 µM
[59]
  TGI: > 100 µM
[60]
  TGI: 44 µM
[61]
  TGI: 91.2 µM
[23]
  TGI: > 100 µM
[24]
  TGI: > 100 µM
[25]
  TGI: > 100 µM
[26]
  TGI: > 100 µM
[53]
  TGI: 35.3 µM
[62]
  TGI: 91.8 µM
[27]
  TGI: > 100 µM
[28]
  TGI: 96.7 µM
[29]
  TGI: > 100 µM
[30]
  TGI: > 100 µM
[63]
  TGI: > 100 µM
[31]
  TGI: 48.3 µM
[32]
  TGI: > 100 µM
[33]
  TGI: > 100 µM
[34]
  TGI: > 100 µM
[64]
  TGI: 58.1 µM
[35]
  TGI: 37.4 µM
[36]
  TGI: > 100 µM
[37]
  TGI: 24.8 µM
[65]
  TGI: 79.7 µM
[38]
  TGI: 98.4 µM
[39]
  TGI: > 100 µM
[66]
  TGI: > 100 µM
[67]
  TGI: > 100 µM
[43]
  TGI: > 100 µM
[44]
  TGI: > 100 µM
[45]
  TGI: 52.4 µM
[46]
  TGI: 50.2 µM
[47]
  TGI: > 100 µM

## CSc1cccc(-n2c3nc(=O)n(C)c(=O)c-3nc3ccccc32)c1
[1]
  TGI: 33.4 µM
[49]
  TGI: 25.3 µM
[2]
  TGI: 16.2 µM
[3]
  TGI: 13.2 µM
[50]
  TGI: 19.7 µM
[4]
  TGI: 42.7 µM
[5]
  TGI: 11 µM
[6]
  TGI: 32.6 µM
[7]
  TGI: 14.9 µM
[68]
  TGI: 13.2 µM
[8]
  TGI: 36.6 µM
[9]
  TGI: 16.5 µM
[51]
  TGI: 23.3 µM
[11]
  TGI: 16.7 µM
[52]
  TGI: 26.2 µM
[12]
  TGI: 45.3 µM
[13]
  TGI: 25.3 µM
[14]
  TGI: 15.9 µM
[15]
  TGI: 36 µM
[57]
  TGI: 32.5 µM
[16]
  TGI: 43.2 µM
[17]
  TGI: 15.4 µM
[19]
  TGI: 26.2 µM
[20]
  TGI: 9.79 µM
[21]
  TGI: 5.03 µM
[22]
  TGI: 11.4 µM
[23]
  TGI: 32.3 µM
[24]
  TGI: 28.9 µM
[25]
  TGI: 70.3 µM
[26]
  TGI: 10.2 µM
[53]
  TGI: 28.3 µM
[27]
  TGI: 6.17 µM
[28]
  TGI: 21.6 µM
[29]
  TGI: 32 µM
[30]
  TGI: 57.6 µM
[31]
  TGI: 26.2 µM
[33]
  TGI: 61.9 µM
[34]
  TGI: 23.6 µM
[64]
  TGI: 12.4 µM
[35]
  TGI: 31.1 µM
[36]
  TGI: 37.3 µM
[37]
  TGI: 3.02 µM
[65]
  TGI: 96 µM
[38]
  TGI: 17.9 µM
[39]
  TGI: 65.9 µM
[40]
  TGI: 28.6 µM
[41]
  TGI: 43.7 µM
[42]
  TGI: 22 µM
[43]
  TGI: 40.9 µM
[44]
  TGI: 23.3 µM
[46]
  TGI: 6.14 µM
[47]
  TGI: 32.9 µM
[48]
  TGI: 13.4 µM
